Test results taken from patent US20090005361A1, “Combination of Organic Compounds” (priority 2006, published 2009).

How the values were obtained:
Format in all cases: biochemical
rat renin = target: T1, rat renin (Rattus norvegicus, UniProt P08424); test: renin inhibition, species specificity (rat renin); conditions: relative potency loss against rat renin
T1 sequence (P08424 65-402): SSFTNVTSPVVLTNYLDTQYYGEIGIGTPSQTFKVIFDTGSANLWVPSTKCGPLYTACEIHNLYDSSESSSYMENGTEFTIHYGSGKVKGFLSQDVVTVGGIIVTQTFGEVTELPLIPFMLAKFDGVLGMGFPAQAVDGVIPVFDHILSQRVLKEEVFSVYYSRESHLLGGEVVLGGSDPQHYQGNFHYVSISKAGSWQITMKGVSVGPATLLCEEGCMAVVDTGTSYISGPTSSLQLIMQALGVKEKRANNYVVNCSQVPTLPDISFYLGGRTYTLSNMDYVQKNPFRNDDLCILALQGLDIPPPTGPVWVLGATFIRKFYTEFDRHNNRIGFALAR

mouse renin = test: renin inhibition, species specificity (mouse renin); conditions: stated in words, compared with human renin
dog renin = target: T2, dog renin (Canis lupus familiaris, UniProt Q6DYE7); test: renin inhibition, species specificity (dog renin); conditions: stated in words, compared with human renin
T2 sequence (Q6DYE7 66-403): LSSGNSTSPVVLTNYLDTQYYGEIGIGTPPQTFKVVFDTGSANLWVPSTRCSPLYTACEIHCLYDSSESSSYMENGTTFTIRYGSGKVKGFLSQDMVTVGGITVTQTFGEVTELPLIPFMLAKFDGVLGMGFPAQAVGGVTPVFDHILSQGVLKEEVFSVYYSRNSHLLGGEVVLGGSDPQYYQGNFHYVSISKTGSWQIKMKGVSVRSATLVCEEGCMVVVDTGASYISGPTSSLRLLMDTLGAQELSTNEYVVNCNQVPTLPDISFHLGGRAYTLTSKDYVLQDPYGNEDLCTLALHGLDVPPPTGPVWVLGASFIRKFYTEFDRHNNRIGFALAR

## COCCCOc1cc(C[C@@H](C[C@H](N)[C@@H](O)C[C@H](C(=O)NCC(C)(C)C(N)=O)C(C)C)C(C)C)ccc1OC [aliskiren, 2(S),4(S),5(S),7(S)-N-(3-amino-2,2-dimethyl-3-oxopropyl)-2,7-di(1-methylethyl)-4-hydroxy-5-amino-8-[4-methoxy-3-(3-methoxy-propoxy)phenyl]-octanamide]
Rat renin
  weaker as a rat renin inhibitor: 1-2 orders of magnitude
Mouse renin
  potency against mouse renin: reasonable potency
Dog renin
  potency against dog renin: reasonable potency
